Assay results as given in patent US12414968B2, “Compositions comprising bacterially derived minicells and methods of using the same” (EnGeneIC Molecular Delivery Pty Ltd, priority 2018, dated 2025).

Key:
MiaPaca-2 cells = experiment: MTS cell proliferation assay, MiaPaca-2; format: cell-based, human; settings: 72 hrs
human STING alleles = settings: Corrales et al., 2015, Fu et al.; cited from earlier work
[1] = test system: human peripheral blood monocytes (PBMCs); settings: multiple donors with different STING genotypes; cited from earlier work
[2] = test system: human breast cancer cell line MDA-MB-468; experiment: MTS cell proliferation assay, MDA-MB-468; format: cell-based; settings: 72 hrs
[3] = test system: human colorectal cancer cell lines Caco-2 and HCT116; experiment: MTS cell proliferation assay, Caco-2 and HCT116; format: cell-based; settings: 72 hrs
[4] = test system: Adreno-cortical cancer cell lines ACC01 and ACC07; experiment: MTS cell proliferation assay, ACC01 and ACC07; settings: 72 hrs, lines derived from Stage IV patients
Description: All cells were incubated for a further 72 hrs followed by the colorimetric MTS cell proliferation assay (Cory et al., Cancer Commun., 3(7): 207-12 (1991)) using the CellTiter 96 AQueous One Solution Cell Proliferation Assay (Promega Corp., Madison, Wis., USA), according to the manufacturer's instructions. The colorimetric measurements were read at 490 nm.

[5] = test system: bone marrow derived dendritic cells (BMDC) with CT26Ep12.1 cells; experiment: BMDC / treated CT26Ep12.1 co-culture; format: cell-based, mouse; settings: 48 h co-incubation
Description: The effect of tumor cell death in response to Ep-EDV, Ep-EDV-682, and 682 treatment on dendritic cell maturation was also examined (FIGS. 27E-27I). Bone marrow derived dendritic cells (BMDC) were co-incubated with treated tumor cells (4T1 and CT26Ep12.1) for 48 h, followed by assessment of the production of the type 1 interferons IFNα and IFNβ. Increases in type 1 interferon production by dendritic cells is well established as a mechanism of dendritic cell maturation and enhanced antigen presentation as well as being vital for their interaction with other immune cell subsets including NK cells and T-cells (Fitzgerald-Bocarsly and Feng, 2007; Simmons et al., 2012).
Bone Marrow Derived DCs (BMDC): Bone marrow was isolated from the femurs and tibias of Balb/c mice. […]
Macrophage and DC/Tumor Cell Co-cultures: CT26Ep12.1 and 4T1 cells were harvested with Versene (Gibco) and cells were collected in 1 mL Eppendorf tubes. […] RAW264.7/tumor cell co-cultures were collected using a cell scraper and samples were stained with DAPI (Sigma), anti-CD45 Brilliant Violet 510 (BioLegend), anti-CD86 APC-Cy7, and anti-CD206 AF488 and assessed by flow cytometry. […] RNA concentration was determined on an Eppendorf biophotometer plus. […] Data was exported to excel and the relative quantitation was calculated from the ΔΔCt.

[6] = test system: Glioblastoma cell line U87-MG; experiment: MTS cell proliferation assay, U87-MG; format: cell-based; settings: 72 hrs
MiaPaca-2 GemR cells = experiment: MTS cell proliferation assay, MiaPaca-2 GemR; format: cell-based, human; settings: 72 hrs
MDA-MB 468 xenografts = experiment: MDA-MB 468 breast cancer xenograft, EDVsDox with IFN-γ (FIGS. 21, 22); format: in vivo, Balb/c nu/nu mice; settings: IFN-γ 0.5 × 10^4 IU per dose
Source text: Breast cancer: To study the anti-tumor effects of combining ^EGFREDVsDox and IFN-γ in a breast cancer model, MDA-MB 468 xenografts in Balb/c nu/nu mice were established and divided into four groups receiving different treatment combinations by intravenous tail vein injection. Group 1 received sterile physiological saline (FIG. 21, open diamonds). Group 2 received IFN-γ (0.5×10^4 IU) per dose (FIG. 21, solid triangles). Group 3 received ^EGFREDVsDox (FIG. 21, solid squares). Group 4 received ^EGFREDVsDox and IFN-γ (0.5×10^4 IU) per dose (FIG. 21, solid circles).

[7] = test system: A549 (lung cancer) xenografts; experiment: A549 xenograft, EDVsDox with IFN-γ (FIG. 20); format: in vivo, Balb/c nu/nu mice; settings: i.v. tail vein; IFN-γ 0.5 × 10^4 IU per dose
Source text: Lung cancer: To study the anti-tumor effects of combining ^EGFREDVsDox and IFN-γ (type II IFN) in a lung cancer model, A549 (lung cancer) xenografts in Balb/c nu/nu mice were established and divided into four groups receiving different treatment combinations by intravenous tail vein injection. Group 1 received sterile physiological saline (FIG. 20, open diamonds). Group 2 received IFN-γ (0.5×10^4 IU) per dose (FIG. 20, solid triangles). Group 3 received ^EGFREDVsDox (FIG. 20, solid squares). Group 4 received ^EGFREDVsDox and IFN-γ (0.5×10^4 IU) per dose (FIG. 20, solid circles).

For `O=c1[nH]cc(F)c(=O)[nH]1` [5-Fluoro Uracil (5-FU), 5-Fluoro Uracil], the “inhibition of proliferation / resistance of the cells” value (MiaPaca-2 cells) was “resistant”.

For `Nc1ncnc2c1ncn2[C@@H]1O[C@@H]2COP(O)(=S)O[C@@H]3C(O)[C@@H](COP(O)(=S)O[C@H]2[C@H]1O)O[C@H]3n1cnc2c(N)ncnc21` (stereo partly drawn) [ML RR-S2 CDA], the “activation of human STING alleles” value (human STING alleles) is listed as “broadly activate all known human STING alleles” and the “expression of IFN-β” value [1] is listed as “dose-dependent expression of IFN-β”.

With `CC(=O)O[C@@]12CO[C@@H]1C[C@H](O)[C@@]1(C)C(=O)[C@H](O)C3=C(C)[C@@H](OC(=O)[C@H](O)[C@@H](NC(=O)OC(C)(C)C)c4ccccc4)C[C@@](O)([C@@H](OC(=O)c4ccccc4)[C@H]21)C3(C)C` [docetaxel] the “inhibition of proliferation / resistance of the cell line” value [2] was “resistant”.

With `COc1cccc2c1C(=O)c1c(O)c3c(c(O)c1C2=O)C[C@@](O)(C(=O)CO)C[C@@H]3O[C@H]1C[C@H](N)[C@H](O)[C@H](C)O1` [doxorubicin] the “inhibition of proliferation / resistance of the cell lines” value [3] was “resistant”, the “inhibition of proliferation / resistance of the cells” value (MiaPaca-2 cells) was “resistant” and the “cytotoxic effect / resistance of the cell lines” value (“cytotoxic effect / resistance” for short) [4] was “highly resistant”. The “inhibition of proliferation / resistance of the cell line” value [2] was “resistant”, the “increase in IFNβ mRNA production” value [5] was about 5 fold and the “inhibition of proliferation / resistance of the cell line” value [6] was “resistant”.

For `COC(=O)c1cc2c([nH]1)C(=O)C=C1N(C(=O)c3cc4cc(OC)c(OC)c(OC)c4[nH]3)C[C@H]3C[C@]123` [duocarmycin], the “cytotoxic effect / resistance” value [4] was “potent cytotoxic effects”.

In the case of `Nc1ccn([C@@H]2O[C@H](CO)[C@@H](O)C2(F)F)c(=O)n1` [gemzar], the “inhibition of proliferation / resistance of the cells” value (MiaPaca-2 cells) is reported as “resistant” and the “inhibition of proliferation / resistance of the cells” value (MiaPaca-2 GemR cells) is reported as “resistant”.

With `CCc1c2c(nc3ccc(OC(=O)N4CCC(N5CCCCC5)CC4)cc13)-c1cc3c(c(=O)n1C2)COC(=O)[C@]3(O)CC` [irinotecan] the “inhibition of proliferation / resistance of the cells” value (MiaPaca-2 cells) was “resistant”.

In the case of `CN(Cc1cnc2nc(N)nc(N)c2n1)c1ccc(C(=O)N[C@@H](CCC(=O)O)C(=O)O)cc1` [mathotrxate], the “inhibition of proliferation / resistance of the cells” value (MiaPaca-2 cells) is reported as “resistant”.

For `Clc1ccc(C(c2ccccc2Cl)C(Cl)Cl)cc1` (stereo not drawn) [mitotane], the “cytotoxic effect / resistance” value [4] was “highly resistant”.

With `O=C1c2c(O)ccc(O)c2C(=O)c2c(NCCNCCO)ccc(NCCNCCO)c21` [mitoxantrone] the “cytotoxic effect / resistance” value [4] was “highly resistant”.

In the case of `O=C1[O][Pt]2([NH][C@@H]3CCCC[C@H]3[NH]2)[O]C1=O` [oxaliplatin], the “inhibition of proliferation / resistance of the cells” value (MiaPaca-2 cells) is reported as “resistant”.

In the case of `CC(=O)O[C@H]1C(=O)[C@@]2(C)[C@H]([C@H](OC(=O)c3ccccc3)[C@]3(O)C[C@H](OC(=O)[C@H](O)[C@@H](NC(=O)c4ccccc4)c4ccccc4)C(C)=C1C3(C)C)[C@]1(OC(C)=O)CO[C@@H]1C[C@@H]2O` [paclitaxel IVAX, paclitaxel], the “inhibition of proliferation / resistance of the cell line” value [6] is reported as “resistant”.

In the case of `CC(=O)O[C@H]1C(=O)[C@@]2(C)[C@H]([C@H](OC(=O)c3ccccc3)[C@]3(O)C[C@H](OC(=O)[C@H](O)[C@@H](NC(=O)c4ccccc4)c4ccccc4)C(C)=C1C3(C)C)[C@]1(OC(C)=O)CO[C@@H]1C[C@@H]2O` [paclitaxel], the “cytotoxic effect / resistance” value [4] is reported as “highly resistant” and the “inhibition of proliferation / resistance of the cell line” value [2] is reported as “resistant”.

B1: IFN-γ: type II interferon, given free at 0.5 or 0.75 × 10^4 IU per dose (protein, UniProt P01580 23-155, looked up)
Interferon gamma: HGTVIESLESLNNYFNSSGIDVEEKSLFLDIWRNWQKDGDMKILQSQIISFYLRLFEVLKDNQAISNNISVIESHLITTFFSNSKAKKDAFMSIAKFEVNNPQVQRQAFNELIRVVHQLLPESSLRKRKRSRC
For B1, the “Results: anti-tumor efficacy, Exp. #2 (FIG. 22)” value (MDA-MB 468 xenografts; listed as IFN-) was “no anti-tumor efficacy”, the “Results: anti-tumor efficacy, Exp. #1 (FIG. 21)” value (MDA-MB 468 xenografts; i.v. tail vein) was “no anti-tumor efficacy” and the “Results: anti-tumor efficacy” value [7] was “no anti-tumor efficacy”.
